Measurements from PMC12108757, “Discovery and Characterisation of Novel Poly-Histidine-Poly-Glycine Peptides as Matrix Metalloproteinase Inhibitors” (Biomolecules, 2025).

Columns and labels:
human MMP-1 = test: MMP-1 proteinase inhibition assay (time-dependent β-casein degradation, SDS-PAGE); type: biochemical; conditions: for catalytic suppression of MMP-1: proteinase inhibition assay, summary in discussion; for inhibition of MMP-1 activity in hydrolysing β-casein: 0–24 h, MMP-1 pre-incubated with peptide (1:25 molar ratio), sodium phosphate buffer pH 6.5, 37 °C, 12% SDS-PAGE, Coomassie
Procedure: Proteolytic activity was assessed using β-casein (0.08 mM) as a substrate in a time-course assay (0–24 h). Enzymatic reactions were initiated by pre-incubating human MMP-1 with synthetic pHpG peptides (1:25 molar ratio) in a sodium phosphate buffer (pH 6.5) at 37 °C for 30 min. The recombinant human MMP-1 protein (rhMMP-1; ≥95% purity), obtained from MedChemExpress (Monmouth Junction, NJ, USA), was expressed in HEK293 cells as an unglycosylated form with a determined molecular weight of 49–61 kDa. The latent proenzyme requires activation via incubation with 1 mM aminophenylmercuric acetate at 37 °C for 2 h to generate the catalytically active form. Reactions were quenched with 5 mM EDTA at designated intervals, followed by electrophoretic separation on 12% SDS-PAGE and Coomassie staining. The negative control was β-casein in the absence of enzymatic catalysis, while water served as a system blank to monitor background interference.

[1] = UV-Vis spectroscopy of pHpGs and zinc–pHpG complexes; type: physicochemical; conditions: 0.1 mM, 200–300 nm, room temperature; for UV–visible wavelength, zinc–pHpG complex: Zn^2+ complex; for UV–visible wavelength, peptide before zinc binding: peptide alone
Procedure: Ultraviolet–visible (UV–Vis) spectrum of pHpGs and zinc–pHpG complexes (0.1 mM) were recorded using a Shimadzu UV-2450 spectrophotometer (Shimadzu Corporation, Kyoto, Japan) in the wavelength range of 200–300 nm at room temperature.

[2] = Circular dichroism (CD) analysis; type: physicochemical; conditions: 0.2 mM, 20 °C, CDNN software
Procedure: The synthetic pHpGs (0.2 mM) were analysed by CD spectroscopy to identify the secondary microstructure, respectively. Settings: scanning range of 180–260 nm, speed of 50 nm·min^−1, bandwidth of 1 nm, and a response time of 0.5 s. Secondary structure proportions (α-helices, β-sheets, β-turns, and random coils) were analysed via CDNN v2.1 software (Applied Photophysics Ltd., Leatherhead, UK).

HUVECs [3] = test: Scratch wound healing assay; type: cell-based, human; conditions: hVEGF165 25 ng/mL stimulated, serum-free, 12 h, 37 °C; across all groups 3.125–25 μM
Procedure: Human umbilical vein endothelial cells (HUVECs) were procured from the Shanghai Institute of Biochemistry and Cell Biology (Chinese Academy of Sciences, China). For the scratch wound healing assay, HUVECs were seeded in 24-well plates at a density of 1.2 × 10⁵ cells/well and cultured to form confluent monolayers. A linear wound was created by scraping with a sterile pipette tip. Serum-free Dulbecco’s modified Eagle medium containing 25 ng/mL of human vascular endothelial growth factor 165 (hVEGF165) was supplied, followed by the addition of either the pHpG-H7 peptide (3.125 μM, 6.25 μM, 12.5 μM, 25 μM) or water as a control. Cells were incubated for 12 h (37 °C, 5% CO2), and images were captured at 0 h (initial wound area) and 12 h. Wound healing was quantified using ImageJ 1.53t software, with a migration rate calculated as: Mobility (%) = (initial wound area–12 h residual area)/initial wound area × 100%.

HUVECs [4] = test: Trans-well migration assay; type: cell-based, human; conditions: 10% FBS, hVEGF165 25 ng/mL, 24 h, 37 °C; 3.125–25 μM
Procedure: HUVECs (2 × 10^5 cells) were seeded in the upper chamber of a modified Boyden chamber system (BD Sciences, Milpitas, CA, USA). The lower chamber contained medium with 10% FBS, hVEGF165 (25 ng/mL), pHpG-H7 peptide (3.125 μM, 6.25 μM, 12.5 μM, 25 μM), or water. After 24 h incubation (37 °C, 5% CO2), migrated cells on the lower membrane surface were fixed, stained with Crystal Violet, and imaged. Cell migration was quantified using ImageJ software.

HUVECs [5] = test: Tube formation assay (Matrigel); type: cell-based, human; conditions: hVEGF165-stimulated, 1% FBS, 8 h, 37 °C, 3.125–25 μM
Procedure: Matrigel™ Basement Membrane Matrix (BD Bioscience, Franklin Lakes, NJ, USA) was added to a 96-well plate to a total volume of 60 μL per well and polymerised at 37 °C with 5% CO2 for 30 min to form a gel layer. HUVECs (2 × 10^4 cells/well) in the medium with 1% FBS were seeded. Different concentrations of pHpG-H7 peptide (3.125 μM, 6.25 μM, 12.5 μM, 25 μM) were added to each well and incubated for 8 h (37 °C, 5% CO2). Results were detected by phase-contrast microscope (Olympus, Tokyo, Japan) and photographed. At least three representative fields from each well were selected to count the number of branching points.

metalloproteinase = conditions: ref [10]; cited from earlier work
Procedure: Time-dependent β-casein degradation mediated by MMP-1 was analysed. In the absence of pHpG peptides, β-casein was progressively degraded and fully hydrolysed within 24 h (Figure 4A).

SVMP = conditions: ref [10]; cited from earlier work
Description: (§1) In the preceding investigation, we reported the presence of snake venom metalloproteinase in A. squamigera’s venom, which belongs to the Pep_M12B_propeptide family. […] This hypothesis is strongly supported by findings ...

[6] = system: venom-induced haemorrhage; conditions: ref [10]; cited from earlier work
Description: as §1

Sequence	catalytic suppression of MMP-1 (human MMP-1)	inhibition of MMP-1 activity in hydrolysing β-casein (human MMP-1; β-casein 0.08 mM, 30 min)	UV–visible wavelength, zinc–pHpG complex [1] [nm]	UV–visible wavelength, peptide before zinc binding [1] [nm]	Unorderd (random coil) [2] [%]	α-Helix [2] [%]	β-Strand [2] [%]	β-Turn [2] [%]	relative inhibitory effect on MMP-1 among the pHpG peptides (human MMP-1; comparison of pHpG-H5, pHpG-H7, pHpG-H9, β-casein, SDS-PAGE)	earliest time of suppression of MMP-1 activity (human MMP-1; β-casein 0.08 mM, pre-incubation 1:25 molar ratio, pH 6.5, 37 °C, 30 min, SDS-PAGE, 'as early as') [h]	wound closure capability of HUVECs (HUVECs [3])	HUVECs migration (HUVECs [4])	anti-angiogenesis effect (tube formation) (HUVECs [5])	metalloproteinase-mediated casein hydrolysis (metalloproteinase)	SVMP activity (SVMP)	venom-induced haemorrhage [6]
EDDHHHHHGVGGGGGGGGGG [pHpG-H5]	potent catalytic suppression	significantly inhibited	216	214	29.2	12.1	40.6	21.6								
EDDHHHHHHHGVGGGGGGGGGG [pHpG-H7]	potent catalytic suppression	significantly inhibited	215	212	46.4	6.2	13.6	29.4	most pronounced inhibitory effect	≤ 0.5	significantly impaired	inhibited by pHpG-H7 in a dose-dependent manner	anti-angiogenesis effects in a dose-dependent manner			
EDDHHHHHHHHHGVGGGGGGGGGG [pHpG-H9, Atheris pHpG-1 is equivalent to pHpG-H9, reference compound]	potent catalytic suppression	significantly inhibited	218	210	47.5	6.3	11.7	30.7						inhibits	inhibition of SVMP activity	alleviation of venom-induced haemorrhage
